Experimental data as given in ChEMBL document CHEMBL3763039, “Development and Characterization of Potent Cyclic Acyldepsipeptide Analogues with Increased Antimicrobial Activity” (2016).
Values after ≈ are worked out from the molar mass of the structure shown. Where a SMILES comes first, the peptide text is derived from it. Bridges are numbered along the chain shown (N, C = ends). [ ]: non-standard residue; d: D form. The star is where a group is joined. Phe(3,5-F2) = N[C@@H](Cc1cc(F)cc(F)c1)C(=O)O; 2Nal = N[C@@H](Cc1ccc2ccccc2c1)C(=O)O; Pro(4R-Me) = C[C@H]1CN[C@H](C(=O)O)C1; Bta = N[C@@H](Cc1csc2ccccc12)C(=O)O; Heptenoyl(2E) = CCCC/C=C/C(=O)*; Cha = N[C@@H](CC1CCCCC1)C(=O)O; Pip = O=C(O)[C@@H]1CCCCN1; Abu = CC[C@H](N)C(=O)O; Dap = NC[C@H](N)C(=O)O

Experiments:
Assay type in all cases: functional
Neisseria meningitidis [1] = experiment: Antibacterial activity against Neisseria meningitidis H44/76 incubated for 16 to 18 hrs by broth microdilution method
Neisseria gonorrhoeae = experiment: Antibacterial activity against chloramphenicol-resistant Neisseria gonorrhoeae N.279 incubated for 16 to 18 hrs by broth microdilution method
Escherichia coli [2] = experiment: Antibacterial activity against Escherichia coli MC4100 incubated for 16 to 18 hrs by broth microdilution method
Escherichia coli [3] = experiment: Antibacterial activity against Escherichia coli MC4100 expressing lptD-4213 incubated for 16 to 18 hrs by broth microdilution method
Pseudomonas aeruginosa = experiment: Antibacterial activity against Pseudomonas aeruginosa PAO1 incubated for 16 to 18 hrs by broth microdilution method
Staphylococcus aureus [4] = experiment: Antibacterial activity against methicillin-resistant Staphylococcus aureus 1784A incubated for 16 to 18 hrs by broth microdilution method
Staphylococcus aureus [5] = experiment: Antibacterial activity against Staphylococcus aureus subsp. aureus Newman clinical isolate incubated for 16 to 18 hrs by broth microdilution method
Staphylococcus aureus [6] = experiment: Antibacterial activity against Staphylococcus aureus ATCC 29213 incubated for 16 to 18 hrs by broth microdilution method
Enterococcus faecalis = experiment: Antibacterial activity against vancomycin-resistant Enterococcus faecalis V583 incubated for 16 to 18 hrs by broth microdilution method
Streptococcus pneumoniae = experiment: Antibacterial activity against Streptococcus pneumoniae D39 incubated for 16 to 18 hrs by broth microdilution method
Bacillus subtilis = experiment: Antibacterial activity against Bacillus subtilis PY79 incubated for 16 to 18 hrs by broth microdilution method
Listeria innocua = experiment: Antibacterial activity against Listeria innocua incubated for 16 to 18 hrs by broth microdilution method
Neisseria meningitidis [7] = experiment: Antibacterial activity against clpP deficient Neisseria meningitidis H44/76 incubated for 16 to 18 hrs by broth microdilution method

Row | Compound | MIC (Neisseria meningitidis [1]) [µg/mL] | MIC (Neisseria gonorrhoeae) [µg/mL] | MIC (Escherichia coli [2]) [µg/mL] | MIC (Escherichia coli [3]) [µg/mL] | MIC (Pseudomonas aeruginosa) [µg/mL] | MIC (Staphylococcus aureus [4]) [µg/mL] | MIC (Staphylococcus aureus [5]) [µg/mL] | MIC (Staphylococcus aureus [6]) [µg/mL] | MIC (Enterococcus faecalis) [µg/mL] | MIC (Streptococcus pneumoniae) [µg/mL] | MIC (Bacillus subtilis) [µg/mL] | MIC (Listeria innocua) [µg/mL] | MIC (Neisseria meningitidis [7]) [µg/mL]
1 | CCCC/C=C/C(=O)N[C@@H](Cc1csc2ccccc12)C(=O)N[C@H]1COC(=O)[C@@H]2C[C@@H](C)CN2C(=O)[C@H](CC)NC(=O)[C@@H]2CCCCN2C(=O)[C@@H]2CCCN2C1=O ({Heptenoyl(2E)}-[Bta]SP[Pip][Abu][Pro(4R-Me)]; ester 2-C) | 32 (≈ 39.8 µM) | > 128 | > 128 | > 128 | > 128 | > 128 | 8 (≈ 9.94 µM) | 8 (≈ 9.94 µM) | 8 (≈ 9.94 µM) | 8 (≈ 9.94 µM) | 8 (≈ 9.94 µM) | 0.125 (≈ 0.155 µM) | –
2 | CCCC/C=C/C(=O)N[C@@H](Cc1ccc2ccccc2c1)C(=O)N[C@H]1COC(=O)[C@@H]2C[C@@H](C)CN2C(=O)[C@H](CC)NC(=O)[C@@H]2CCCCN2C(=O)[C@@H]2CCCN2C1=O ({Heptenoyl(2E)}-[2Nal]SP[Pip][Abu][Pro(4R-Me)]; ester 2-C) | 32 (≈ 40.1 µM) | > 128 | > 128 | > 128 | > 128 | > 128 | > 128 | > 128 | 32 (≈ 40.1 µM) | 2 (≈ 2.5 µM) | 128 (≈ 160 µM) | 0.5 (≈ 0.626 µM) | –
3 | C[C@@H]1C[C@H]2C(=O)O[C@@H](C)[C@H](NC(=O)[C@H](Cc3cc(F)cc(F)c3)NC(=O)/C=C/CC3CC3)C(=O)N3CCC[C@H]3C(=O)N3CCCC[C@H]3C(=O)N[C@@H](C)C(=O)N2C1 | 0.25 (≈ 0.319 µM) | 0.125 (≈ 0.16 µM) | > 128 | > 128 | > 128 | 0.125 (≈ 0.16 µM) | 0.0625 (≈ 0.0798 µM) | 0.0078 (≈ 0.00996 µM) | 0.0078 (≈ 0.00996 µM) | ≤ 0.0625 | ≤ 0.0625 | ≤ 0.0625 | –
4 | O=C(N[C@H](CO)[C@H](O)c1ccc([N+](=O)[O-])cc1)C(Cl)Cl [CHLORAMPHENICOL] | 0.5 (≈ 1.55 µM) | 64 (≈ 198 µM) | 3.1 (≈ 9.59 µM) | 2 (≈ 6.19 µM) | 8 (≈ 24.8 µM) | – | – | – | – | – | – | – | 1 (≈ 3.09 µM)
5 | CN[C@@H](CC(C)C)C(=O)N[C@H]1C(=O)N[C@@H](CC(N)=O)C(=O)N[C@H]2C(=O)N[C@H]3C(=O)N[C@H](C(=O)N[C@@H](C(=O)O)c4cc(O)cc(O)c4-c4cc3ccc4O)[C@H](O)c3ccc(c(Cl)c3)Oc3cc2cc(c3O[C@H]2O[C@@H](CO)[C@H](O)[C@@H](O)[C@@H]2O[C@@H]2C[C@@](C)(N)[C@@H](O)[C@@H](C)O2)Oc2ccc(cc2Cl)[C@H]1O | – | – | – | – | – | 1.3 (≈ 0.897 µM) | – | – | – | 0.25 (≈ 0.173 µM) | 0.16 (≈ 0.11 µM) | 1 (≈ 0.69 µM) | –
6 | CCCC/C=C/C(=O)N[C@@H](CC1CCCCC1)C(=O)N[C@H]1COC(=O)[C@@H]2C[C@@H](C)CN2C(=O)[C@H](CC)NC(=O)[C@@H]2CCCCN2C(=O)[C@@H]2CCCN2C1=O ({Heptenoyl(2E)}-[Cha]SP[Pip][Abu][Pro(4R-Me)]; ester 2-C) | 32 (≈ 42.4 µM) | 32 (≈ 42.4 µM) | > 128 | > 128 | > 128 | 4 (≈ 5.3 µM) | 1 (≈ 1.32 µM) | 1 (≈ 1.32 µM) | 1 (≈ 1.32 µM) | 0.5 (≈ 0.662 µM) | 2 (≈ 2.65 µM) | ≤ 0.0625 | –
7 | CCCC/C=C/C(=O)N[C@@H](Cc1cc(F)cc(F)c1)C(=O)N[C@H]1CNC(=O)[C@@H]2C[C@@H](C)CN2C(=O)[C@H](C)NC(=O)[C@@H]2CCCCN2C(=O)[C@@H]2CCCN2C1=O ({Heptenoyl(2E)}-[Phe(3,5-F2)][Dap]P[Pip]A[Pro(4R-Me)]; lactam 2-C) | 1 (≈ 1.3 µM) | 1 (≈ 1.3 µM) | > 128 | > 128 | > 128 | 16 (≈ 20.8 µM) | 16 (≈ 20.8 µM) | 4 (≈ 5.2 µM) | 0.5 (≈ 0.649 µM) | 2 (≈ 2.6 µM) | 4 (≈ 5.2 µM) | ≤ 0.0625 | –
8 | CCCC/C=C/C(=O)N[C@@H](Cc1cc(F)cc(F)c1)C(=O)N[C@H]1COC(=O)[C@@H]2C[C@@H](C)CN2C(=O)[C@H](CC)NC(=O)[C@@H]2CCCN2C(=O)[C@@H]2CCCN2C1=O ({Heptenoyl(2E)}-[Phe(3,5-F2)]SPP[Abu][Pro(4R-Me)]; ester 2-C) | 4 (≈ 5.19 µM) | 4 (≈ 5.19 µM) | > 128 | > 128 | > 128 | 2 (≈ 2.59 µM) | 2 (≈ 2.59 µM) | 2 (≈ 2.59 µM) | 0.25 (≈ 0.324 µM) | 0.5 (≈ 0.649 µM) | 0.125 (≈ 0.162 µM) | ≤ 0.0625 | –
9 | CCCC/C=C/C(=O)N[C@@H](Cc1cc(F)cc(F)c1)C(=O)N[C@@H]1C(=O)N2CCC[C@H]2C(=O)N2CCCC[C@H]2C(=O)N[C@@H](C)C(=O)N2CCC[C@H]2C(=O)O[C@H]1C | 0.25 (≈ 0.324 µM) | 0.125 (≈ 0.162 µM) | > 128 | > 128 | > 128 | 0.125 (≈ 0.162 µM) | 0.0625 (≈ 0.0811 µM) | 0.0078 (≈ 0.0101 µM) | 0.0078 (≈ 0.0101 µM) | ≤ 0.0625 | ≤ 0.0625 | ≤ 0.0625 | –
